Structures can show the parent of a compound that is named as a salt.
Tests used:
[1] = test system: Wistar rats (male); test: quantity of spontaneous movement; format: in vivo; conditions: intraperitoneal, 3 hours; for Number of times of rising: control 2; for Number of times of traversing: control 20
Text: Determination of quantity of spontaneous movement
Wistar rats (male) aged 7 weeks were used to confirm the effect of Compound 1 on spontaneous movement. […] The number of times of traversing sections of a floor and the number of times of rising were used as indices of the quantity of movement. The test agent was used in doses of from 0.1 mmol/kg down to 0.01 mmol/kg. Besides, physiological saline alone was used as a control.

[2] = test system: [^3 H]-DA re-uptake; test: inhibition of [^3 H]-DA re-uptake in corpus striatum homogenate; format: biochemical, Sprague-Dawley rats; conditions: for amount of DA re-uptake: 2 min
Protocol: Investigation as to inhibition of [^3 H]-DA re-uptake
Corpus striatum samples of Sprague-Dawley rats (SD rats) were used to investigate the inhibition of [^3 H]-DA re-uptake.
More specifically, after an SD rat (aged 8 weeks, male) was decapitated, its corpus striatum was taken out while keeping on ice. A Krebs-Henseleit buffer in an amount ten times of the corpus striatum was added thereto to homogenize the resultant mixture by means of a Teflon homogenizer, thereby obtaining a homogenate. To this homogenate, were added nialamide as a monoamine oxidase inhibitor, ascorbic acid as an antioxidant and a test agent to preincubate the resulting mixture at 37° C. for 5 minutes. […] After the reaction mixture was filtered by means of a cell harvester in which a filter had been set, the filter was washed twice with physiological saline. The washed filter was placed in a vial, and 10 ml of Aquazol-2 were added to leave the filter to stand overnight. Thereafter, the radioactivity of the sample was measured by a liquid scintillation counter.
Compound 1 according to the present invention was used as a test agent. The test agent was prepared into a 10^-2 M solution in dimethyl sulfoxide, and the solution was diluted with a Krebs-Henseleit buffer before its use. With the concentrations of the test substances, 11 points were selected within a range of from 10^-10 M to 10^-5 M to plot the concentration versus the amount of DA re-uptake. From this plot, an IC50 value was determined.

## OC(CNc1ccccc1)CN1CCN(CCCC(c2ccc(F)cc2)c2ccc(F)cc2)CC1 (stereo not drawn) [Compound 1, 1-[4,4-Bis(4-fluorophenyl)-butyl]-4-(2-hydroxy-3-phenyl-aminopropyl)piperazinedihydrochloride]
[1]; 0.01 mmol/kg
  Number of times of rising: 69 times
  Number of times of traversing: 253 times
[1]; 0.03 mmol/kg
  Number of times of rising: 156 times
  Number of times of traversing: 267 times
[1]; 0.1 mmol/kg
  Number of times of rising: 121 times
  Number of times of traversing: 287 times
[1]; 0.01 to 0.1 mmol/kg, hydrochloride
  quantity of spontaneous movement (in words): enhances the quantity of the spontaneous movement to a marked extent
[2]; SD rat corpus striatum homogenate, 37° C., 2 minutes reaction
  IC50: 6.79 nM
[2]; concentration of test substance -log (mol) 6, 1 µM
  amount of DA re-uptake: 0%
[2]; concentration of test substance -log (mol) 6.5, 0.316 µM
  amount of DA re-uptake: 0%
[2]; concentration of test substance -log (mol) 7, 0.1 µM
  amount of DA re-uptake: 2%
[2]; concentration of test substance -log (mol) 8, 0.01 µM
  amount of DA re-uptake: 38%
[2]; concentration of test substance -log (mol) 9, 0.001 µM
  amount of DA re-uptake: 80%
[2]; concentration of test substance -log (mol) 10, 0.0001 µM
  amount of DA re-uptake: 92%
[2]; conclusion from IC50 and Table 3
  inhibition of DA re-uptake (in words): potent activities of inhibiting DA re-uptake

Source: patent US5747493A, “Dopamine re-uptake inhibitor” (Pola Chemical Industries, Inc., priority 1993, dated 1998)
